Among the data in PubChem BioAssay (NCI) are TGI and GI50 values, retold here.

Experiment in all cases: NCI-60 cell line screen, 48 h
Assay [1] has as its system A549 NSCLC.
In assay [2] the test system is ACHN renal.
The test system of assay [3] is BT-549 breast.
Assay [4] has as its system DU-145 prostate.
The test system of assay [5] is KM12 colon.
For assay [6], the system named is MCF7 breast.
The subject of assay [7] is NCI-H226 lung.
The test system of assay [8] is PC-3 prostate.
Assay [9] deals with T-47D breast.
Assay [10] deals with TK-10 renal.

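96-well plates; 48 h exposure; 5 concentrations. Endpoints by linear interpolation between flanking doses. Not reached: highest tested concentration assigned. GI50 marks 50% less growth. Definition used: TGI = concentration required for complete inhibition of growth.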

For the molecule `CCCC(=O)OC1C(C(O)CO)OC2OC(C)(C)OC21` (stereo not given), the TGI in assay [1], in [2], in assay [3], in assay [4], in [5] and in [6] was more than 100 µM in each case. The TGI in assay [7], in assay [8], in [9] and in [10] was more than 100 µM each time.

In the case of `COc1ccc(/C=C2\CCCC3=C2N=C2SC(C)=NN2C3c2ccc(OC)c(OC)c2)cc1OC` (stereo not given), the GI50 in assay [1] is 31.8 µM; in assay [2], 4.2 µM; in assay [3], 7.37 µM; in [4], 10.7 µM; in [5], 8.41 µM; in assay [6] it was 3040 nM. The GI50 is 13.3 µM in assay [7], 25.8 µM in assay [8], 4.57 µM in assay [9] and 5.99 µM in assay [10]. Further, the TGI in assay [1] is more than 100 µM; in assay [2], 33.3 µM; in [3], more than 100 µM; in [4], more than 100 µM; in assay [5] it was more than 100 µM; in assay [6] it was more than 100 µM. Besides, the TGI in assay [7] is 79.4 µM; in [8], more than 100 µM; in [9] it was more than 100 µM; in assay [10] it was 51.2 µM.

As to `Nc1nc2c(c3ncncc13)C(c1cccc(C(F)(F)F)c1)Cc1ncncc1-2` (stereo not given), the GI50 was 5.45 µM in assay [1]; 7.06 µM in assay [2]; 4.08 µM in assay [3]; 3.78 µM in assay [4]; 4.43 µM in assay [5]; 2960 nM in assay [6]. For the same molecule, the GI50 in assay [7] was 9.61 µM; in assay [8], 4.71 µM; in assay [9], 4.15 µM; in assay [10], 9.05 µM. The TGI in assay [1] is more than 100 µM; in assay [2] it was 41.6 µM; in [3], 21.5 µM; in [4], more than 100 µM; in assay [5], 35.5 µM; in assay [6], more than 100 µM. The TGI in assay [7] is 50.1 µM; in assay [8], more than 100 µM; in assay [9], 82.9 µM; in [10], 79.4 µM.
